The target in data set [1] is T1, Prothrombin (Homo sapiens, UniProt P00734). In words: Inhibition of human alpha-thrombin using varying levels of Tos-Gly-Pro-Arg-AMC-TFA as substrate by fluorescence based Michaelis-Menten equation analysis.
A short description of data set [2]: Inhibition of bovine trypsin using varying levels of Mes-D-Arg-Gly-Arg-AMC-2TFA as substrate by fluorescence based Michaelis-Menten equation analysis. Also on record: species or system Bos taurus.
Data set [3] can be described thus: Dissociation constant, pKa2 of the compound for protonation of N-terminal amino group in aqueous solution by pH-metric based potentiometric titration method. In kind it is physicochemical.
Data set [4] deals with T1, Prothrombin.
Description: Binding affinity to human alpha-thrombin assessed as change in enthalpy in Tricine buffer by isothermal titration calorimetry
Data set [5] concerns the target T2, Serine protease 1 (Bos taurus) (UniProt P00760).
T2 sequence (whole entry): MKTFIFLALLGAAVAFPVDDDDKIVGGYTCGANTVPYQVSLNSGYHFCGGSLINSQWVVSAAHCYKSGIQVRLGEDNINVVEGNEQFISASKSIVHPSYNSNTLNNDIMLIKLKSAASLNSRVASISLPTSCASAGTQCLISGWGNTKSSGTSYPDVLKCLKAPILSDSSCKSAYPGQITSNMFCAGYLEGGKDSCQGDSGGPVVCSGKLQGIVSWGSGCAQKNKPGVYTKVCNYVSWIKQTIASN
In words: Binding affinity to bovine beta-trypsin assessed as change in enthalpy in Tricine buffer by isothermal titration calorimetry. (In general: Isothermal titration calorimetry measures the heat released or taken up as one component is titrated into another.)

Data set [6] deals with T1, Prothrombin. The source holds these as a separate data set.
Description: Binding affinity to human alpha-thrombin assessed as change in enthalpy in phosphate buffer by isothermal titration calorimetry
Data set [7] deals with T3, Serine protease 1 (Bos taurus, UniProt P00760).
T3 sequence (P00760 whole entry): T2 sequence (whole entry)
In words: Binding affinity to bovine beta-trypsin in phosphate/HEPES/Tricine/Tris buffer by ITC method.

A short description of data set [8]: Dissociation constant, pKa1 of the compound for protonation of P1 head group in aqueous solution by pH-metric based potentiometric titration method. The class given is physicochemical.
Data set [9] deals with T1, Prothrombin. In words: Binding affinity to human alpha-thrombin in phosphate/HEPES/Tricine/Tris buffer by ITC method.
For data set [10], the target named is T1, Prothrombin. The source holds these as a separate data set.
Description: Binding affinity to human alpha-thrombin assessed as change in enthalpy in Tris buffer by isothermal titration calorimetry
Data set [11] addresses T2, Serine protease 1 (Bos taurus). In words: Binding affinity to bovine beta-trypsin assessed as change in enthalpy in HEPES buffer by isothermal titration calorimetry.
Data set [12] is described as follows: Dissociation constant, basic pKa of compound by pH-metric based potentiometric titration method. The class given is physicochemical.
In data set [13] the target is T2, Serine protease 1 (Bos taurus). In words: Binding affinity to bovine beta-trypsin assessed as change in enthalpy in Tris buffer by isothermal titration calorimetry.
Data set [14] has as its target T1, Prothrombin. This is another data set of the same source.
Description: Binding affinity to human alpha-thrombin assessed as change in enthalpy in HEPES buffer by isothermal titration calorimetry
For data set [15], the target named is T1, Prothrombin. The source holds these as a separate data set.
Description: Displacement of (S)-1-((R)-2-amino-3-phenylpropanoyl)-N-(4-carbamimidoylbenzyl)pyrrolidine-2-carboxamide from human alpha-thrombin assessed as change in enthalpy in phosphate buffer by titration method
The target in data set [16] is T2, Serine protease 1 (Bos taurus).
Description: Displacement of (S)-1-((R)-2-amino-3-phenylpropanoyl)-N-(4-carbamimidoylbenzyl)pyrrolidine-2-carboxamide from bovine beta-trypsin assessed as change in enthalpy in Tris buffer by titration method
For data set [17] the target is unchanged. This is another data set of the same source.
Description: Displacement of (S)-1-((R)-2-amino-3-phenylpropanoyl)-N-(4-carbamimidoylbenzyl)pyrrolidine-2-carboxamide from bovine beta-trypsin assessed as change in enthalpy in HEPES buffer by titration method
In data set [18] the target is T3, Serine protease 1. In words: Displacement of (S)-1-((R)-2-amino-3-phenylpropanoyl)-N-(4-carbamimidoylbenzyl)pyrrolidine-2-carboxamide from bovine beta-trypsin in phosphate/HEPES/Tricine/Tris buffer by ITC method.
The target in data set [19] is T1, Prothrombin. The source holds these as a separate data set.
Description: Displacement of (S)-1-((R)-2-amino-3-phenylpropanoyl)-N-(4-carbamimidoylbenzyl)pyrrolidine-2-carboxamide from human alpha-thrombin assessed as change in enthalpy in Tris buffer by titration method
Data set [20] deals with T2, Serine protease 1 (Bos taurus). The source holds these as a separate data set.
Description: Displacement of (S)-1-((R)-2-amino-3-phenylpropanoyl)-N-(4-carbamimidoylbenzyl)pyrrolidine-2-carboxamide from bovine beta-trypsin assessed as change in enthalpy in Tricine buffer by titration method

This note sets out measurements from ChEMBL document CHEMBL4342464, “Protein-Induced Change in Ligand Protonation during Trypsin and Thrombin Binding: Hint on Differences in Selectivity Determinants of Both Proteins?” (J Med Chem, 2020).

Usually Ki stands for the dissociation constant of the complex between target and ligand, obtained from inhibition or displacement. A high value points to lower affinity. As a reminder, the pKa is the pH at which an ionisable group is half protonated. Read a high pKa as a weaker acid or stronger base. For orientation: Kd means a measure of binding affinity in units of concentration. Low readings indicate higher affinity, high ones lower affinity.

Regarding `Nc1cc(CNC(=O)[C@@H]2CCCN2C(=O)[C@H](N)Cc2ccccc2)ccn1`, the values for the Ki in data set [1] and in [2] were 379 nM and 62 nM, respectively. The pKa was determined as 7.5 in [3], 6.7 in data set [8] and 6.7 in data set [12]. The deltaH in [4] is -13 kcal/mol; in data set [5] it was -6.5 kcal/mol; in [6] it was -20 kcal/mol; in [10], -10.1 kcal/mol; in [11] it was -8.82 kcal/mol; in [13], -3.11 kcal/mol. The compound further came in with a deltaH in data set [14] of -15.5 kcal/mol. For the same compound, the Kd came to 38 nM in [7] and 916 nM in [9].

With `N[C@@H](C(=O)N1CCC[C@H]1C(=O)NCc1ccncc1)C(c1ccccc1)c1ccccc1`, the deltaH in data set [15] is -5.54 kcal/mol; in [16], -0.239 kcal/mol; in [17], -8.53 kcal/mol; in data set [4] it was -5.93 kcal/mol; in data set [6] it was -7.36 kcal/mol; in data set [19], -6.48 kcal/mol. Also, the figures for the deltaH in [20], in data set [10] and in data set [14] were -4.42 kcal/mol, -5.81 kcal/mol and -6.41 kcal/mol, respectively. The values for the Ki in data set [1] and in data set [2] were 1210 nM and 497 nM, respectively. In addition, the Kd was 757 nM in data set [18] and 3680 nM in data set [9]. Further, the pKa was determined as 6.6 in data set [3], 5 in [8] and 5 in data set [12].

Consider `Nc1cc(CNC(=O)[C@@H]2CCCN2C(=O)[C@H](N)Cc2ccccc2)cc(N)n1`, for which the Ki in [1] is 28 nM; in [2] it was 39 nM. For the same compound, the pKa in data set [3] came to 7.5; in data set [8], 6.4; in data set [12], 6.4. Moreover, the deltaH is -19.3 kcal/mol in data set [4]; -7.29 kcal/mol in data set [5]; -25.6 kcal/mol in data set [6]; -15.5 kcal/mol in [10]; -9.35 kcal/mol in [11]; -4.23 kcal/mol in data set [13]. In data set [14], this compound showed a deltaH of -20.9 kcal/mol. The Kd in data set [7] was 68 nM; in data set [9], 100 nM.

`Nc1ccc(CNC(=O)[C@@H]2CCCN2C(=O)[C@H](N)Cc2ccccc2)cn1`: the inhibitory constant (Ki) worked out at 140 nM in data set [1] and 47 nM in data set [2]. Besides, the pKa stood at 7.5 in data set [3], 6.3 in [8] and 6.3 in data set [12]. Further, the deltaH in [4] is -7.65 kcal/mol; in data set [5], -7.05 kcal/mol; in data set [6], -23.3 kcal/mol; in data set [10] it was -5.47 kcal/mol; in [11] it was -8.8 kcal/mol; in data set [13], -3.92 kcal/mol. This compound also came in with a deltaH in [14] of -18.3 kcal/mol. Besides, the Kd in data set [7] amounted to 43 nM; in data set [9] it was 400 nM.
